In assay [1] the target is Fibroblast growth factor receptor 4 (Homo sapiens, UniProt P22455). The assay can be described thus: Selectivity interaction (Kinase panel (Z-LYTE Assay)) EUB0001632a FGFR4. As to conditions: at 10 µM.
The target in assay [2] is Glycogen synthase kinase-3 alpha (Homo sapiens, UniProt P49840). The assay can be described thus: Selectivity interaction (Kinase panel (Z-LYTE Assay)) EUB0001632a GSK3A. As to conditions: at 10 µM.
Assay [3] deals with Calcium/calmodulin-dependent protein kinase type II subunit delta (Homo sapiens) (UniProt Q13557). The assay can be described thus: Selectivity interaction (Kinase panel (KiNativ target engagement assay in Jurkat cells)) EUB0001635a CAMK2D. Particulars: Selectivity number of off-targets 0.0, Selectivity number of targets 233.0, Source Knowledge https://www.sciencedirect.com/science/article/pii/S2451945619300674?via%3Dihub, at 1 µM. The class given is cell-based.
Sequence of Calcium/calmodulin-dependent protein kinase type II subunit delta (Homo sapiens) (Q13557 whole entry): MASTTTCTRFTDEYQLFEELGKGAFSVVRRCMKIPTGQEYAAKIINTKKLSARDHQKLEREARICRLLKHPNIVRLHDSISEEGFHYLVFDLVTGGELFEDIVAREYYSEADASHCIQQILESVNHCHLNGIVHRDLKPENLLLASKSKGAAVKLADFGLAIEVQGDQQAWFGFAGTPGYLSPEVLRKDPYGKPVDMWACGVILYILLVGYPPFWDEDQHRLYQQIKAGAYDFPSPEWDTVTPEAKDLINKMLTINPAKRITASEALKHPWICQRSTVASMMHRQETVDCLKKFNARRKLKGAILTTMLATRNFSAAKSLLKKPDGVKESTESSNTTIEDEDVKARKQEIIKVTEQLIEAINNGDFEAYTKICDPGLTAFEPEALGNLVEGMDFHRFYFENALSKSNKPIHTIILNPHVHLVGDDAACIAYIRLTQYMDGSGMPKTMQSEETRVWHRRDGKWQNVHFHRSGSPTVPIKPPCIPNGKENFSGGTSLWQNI

For assay [4], the target named is Calcium/calmodulin-dependent protein kinase type II subunit gamma (Homo sapiens) (UniProt Q13555). As to conditions: at 10 µM.
Sequence of Calcium/calmodulin-dependent protein kinase type II subunit gamma (Homo sapiens) (Q13555 whole entry): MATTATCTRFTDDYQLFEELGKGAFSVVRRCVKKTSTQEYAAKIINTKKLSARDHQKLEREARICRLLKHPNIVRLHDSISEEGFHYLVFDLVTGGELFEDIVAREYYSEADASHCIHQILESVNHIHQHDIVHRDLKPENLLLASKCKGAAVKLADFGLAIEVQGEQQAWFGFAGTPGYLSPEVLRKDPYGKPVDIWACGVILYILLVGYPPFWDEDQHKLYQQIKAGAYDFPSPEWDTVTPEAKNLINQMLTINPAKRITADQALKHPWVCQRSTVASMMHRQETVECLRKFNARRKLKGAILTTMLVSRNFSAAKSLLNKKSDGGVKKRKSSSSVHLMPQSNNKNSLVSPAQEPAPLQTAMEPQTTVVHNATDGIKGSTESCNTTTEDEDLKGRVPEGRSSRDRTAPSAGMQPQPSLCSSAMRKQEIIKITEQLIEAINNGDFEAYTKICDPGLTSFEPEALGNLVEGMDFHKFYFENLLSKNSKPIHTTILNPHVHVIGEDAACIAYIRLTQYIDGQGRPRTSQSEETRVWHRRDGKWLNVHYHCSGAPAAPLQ
The target in assay [5] is Ribosomal protein S6 kinase alpha-5 (Homo sapiens) (UniProt O75582). Particulars: at 10 µM.
Sequence of Ribosomal protein S6 kinase alpha-5 (Homo sapiens) (O75582 whole entry, looked up, canonical isoform): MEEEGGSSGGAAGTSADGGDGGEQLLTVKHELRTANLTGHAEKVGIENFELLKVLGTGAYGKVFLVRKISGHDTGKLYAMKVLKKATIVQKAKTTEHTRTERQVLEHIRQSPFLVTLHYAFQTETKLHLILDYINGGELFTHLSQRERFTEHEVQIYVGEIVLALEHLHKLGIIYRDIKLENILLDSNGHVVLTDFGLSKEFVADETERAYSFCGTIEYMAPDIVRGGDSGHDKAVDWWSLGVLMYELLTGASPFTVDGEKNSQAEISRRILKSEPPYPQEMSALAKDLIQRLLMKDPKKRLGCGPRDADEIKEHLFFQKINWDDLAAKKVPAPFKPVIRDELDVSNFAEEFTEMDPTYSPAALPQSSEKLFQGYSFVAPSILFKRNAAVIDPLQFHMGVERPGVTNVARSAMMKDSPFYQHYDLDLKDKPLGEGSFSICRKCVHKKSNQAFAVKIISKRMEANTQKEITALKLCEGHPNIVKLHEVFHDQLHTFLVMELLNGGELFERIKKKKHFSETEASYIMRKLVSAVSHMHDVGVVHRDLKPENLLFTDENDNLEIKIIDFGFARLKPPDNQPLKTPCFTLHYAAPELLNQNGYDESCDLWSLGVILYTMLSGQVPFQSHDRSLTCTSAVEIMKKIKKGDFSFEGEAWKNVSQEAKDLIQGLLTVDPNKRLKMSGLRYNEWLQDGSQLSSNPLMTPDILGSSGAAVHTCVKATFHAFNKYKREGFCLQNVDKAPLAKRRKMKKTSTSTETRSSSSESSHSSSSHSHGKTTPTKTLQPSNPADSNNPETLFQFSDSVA
The target of assay [6] is T1, Phosphatidylinositol 4,5-bisphosphate 3-kinase catalytic subunit delta isoform (Homo sapiens) (UniProt O00329).
T1 sequence (whole entry): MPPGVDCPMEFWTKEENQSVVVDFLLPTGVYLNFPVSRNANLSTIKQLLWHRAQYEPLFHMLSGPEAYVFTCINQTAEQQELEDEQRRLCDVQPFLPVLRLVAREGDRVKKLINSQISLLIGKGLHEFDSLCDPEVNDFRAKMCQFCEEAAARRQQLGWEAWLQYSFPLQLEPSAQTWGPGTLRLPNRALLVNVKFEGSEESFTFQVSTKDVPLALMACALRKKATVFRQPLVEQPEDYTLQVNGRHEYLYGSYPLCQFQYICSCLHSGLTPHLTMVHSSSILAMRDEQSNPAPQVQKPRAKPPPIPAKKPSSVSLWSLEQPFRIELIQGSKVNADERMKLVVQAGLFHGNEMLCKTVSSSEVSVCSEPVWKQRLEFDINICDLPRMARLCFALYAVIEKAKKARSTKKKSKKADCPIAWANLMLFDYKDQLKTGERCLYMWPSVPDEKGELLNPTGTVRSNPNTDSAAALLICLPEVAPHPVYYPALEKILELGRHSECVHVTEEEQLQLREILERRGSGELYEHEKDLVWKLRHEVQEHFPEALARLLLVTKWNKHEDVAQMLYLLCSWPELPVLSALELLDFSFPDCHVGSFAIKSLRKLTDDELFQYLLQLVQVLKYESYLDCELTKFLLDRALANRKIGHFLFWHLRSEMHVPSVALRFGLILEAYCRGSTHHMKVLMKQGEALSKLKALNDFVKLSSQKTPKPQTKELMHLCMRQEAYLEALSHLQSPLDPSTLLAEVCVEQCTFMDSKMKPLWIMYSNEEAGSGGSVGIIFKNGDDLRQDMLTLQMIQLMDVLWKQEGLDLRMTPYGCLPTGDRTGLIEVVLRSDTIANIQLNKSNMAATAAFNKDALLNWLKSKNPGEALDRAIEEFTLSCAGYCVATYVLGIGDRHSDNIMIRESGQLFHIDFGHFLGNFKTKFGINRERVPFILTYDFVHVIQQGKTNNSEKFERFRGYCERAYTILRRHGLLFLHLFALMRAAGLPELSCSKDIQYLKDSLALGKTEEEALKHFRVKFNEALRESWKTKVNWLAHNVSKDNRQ
Nature of the assay: Selectivity interaction (KinomeScan (DiscoverX)) EUB0000655a PIK3CD. As to conditions: at 10 µM.

In assay [7] the target is T2, cGMP-dependent protein kinase 2 (Homo sapiens) (UniProt Q13237).
T2 sequence (whole entry): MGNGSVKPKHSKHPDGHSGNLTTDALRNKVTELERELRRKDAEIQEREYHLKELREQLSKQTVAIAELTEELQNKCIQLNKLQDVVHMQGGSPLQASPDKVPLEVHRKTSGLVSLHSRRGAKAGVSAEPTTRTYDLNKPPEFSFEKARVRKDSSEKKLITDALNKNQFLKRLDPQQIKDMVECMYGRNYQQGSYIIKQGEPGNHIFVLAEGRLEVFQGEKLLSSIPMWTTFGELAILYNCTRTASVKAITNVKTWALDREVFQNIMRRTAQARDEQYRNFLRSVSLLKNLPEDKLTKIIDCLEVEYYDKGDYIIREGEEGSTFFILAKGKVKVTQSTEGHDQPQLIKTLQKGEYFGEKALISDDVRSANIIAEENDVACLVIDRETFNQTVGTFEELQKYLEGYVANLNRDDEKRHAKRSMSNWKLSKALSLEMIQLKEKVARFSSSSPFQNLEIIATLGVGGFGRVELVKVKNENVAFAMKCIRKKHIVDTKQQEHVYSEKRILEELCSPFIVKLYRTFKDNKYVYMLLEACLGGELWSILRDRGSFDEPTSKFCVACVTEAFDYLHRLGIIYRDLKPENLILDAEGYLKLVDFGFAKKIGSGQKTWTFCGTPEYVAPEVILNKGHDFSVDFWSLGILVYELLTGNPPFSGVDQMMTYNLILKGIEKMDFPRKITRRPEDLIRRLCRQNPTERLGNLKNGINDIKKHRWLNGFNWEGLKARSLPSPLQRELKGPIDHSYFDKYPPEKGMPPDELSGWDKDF
The assay can be described thus: Selectivity interaction (Kinase panel (Invitrogen)) EUB0000639a PRKG2. Particulars: at 200 nM.

Assay [8] addresses Cyclin-dependent kinase-like 3 (Homo sapiens) (UniProt Q8IVW4). The assay can be described thus: Selectivity interaction (KinomeScan (DiscoverX)) EUB0000092b CDKL3. As to conditions: at 10 µM.

6 compounds from ChEMBL document CHEMBL5465560, “Selectivity Literature for EUbOPEN Chemogenomic Library” (2024) can be followed below.

Sequence of Cyclin-dependent kinase-like 3 (Homo sapiens) (Q8IVW4 whole entry, looked up): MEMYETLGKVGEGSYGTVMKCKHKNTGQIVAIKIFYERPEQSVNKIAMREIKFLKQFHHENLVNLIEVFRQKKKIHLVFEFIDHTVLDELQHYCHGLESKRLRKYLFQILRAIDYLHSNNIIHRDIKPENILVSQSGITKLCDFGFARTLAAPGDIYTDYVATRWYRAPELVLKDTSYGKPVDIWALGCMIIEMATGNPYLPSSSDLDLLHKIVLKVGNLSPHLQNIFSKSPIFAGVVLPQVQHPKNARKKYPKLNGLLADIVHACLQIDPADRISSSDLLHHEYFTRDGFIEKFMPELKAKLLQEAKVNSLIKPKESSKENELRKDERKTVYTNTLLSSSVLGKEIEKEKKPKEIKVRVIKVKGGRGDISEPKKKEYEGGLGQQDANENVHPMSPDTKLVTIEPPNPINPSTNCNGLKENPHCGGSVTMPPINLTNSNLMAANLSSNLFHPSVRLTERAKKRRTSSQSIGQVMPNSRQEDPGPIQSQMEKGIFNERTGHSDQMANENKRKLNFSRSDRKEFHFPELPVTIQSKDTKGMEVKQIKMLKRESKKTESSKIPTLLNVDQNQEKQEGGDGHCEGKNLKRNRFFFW
Sequence of Glycogen synthase kinase-3 alpha (P49840 2-483 limits assumed): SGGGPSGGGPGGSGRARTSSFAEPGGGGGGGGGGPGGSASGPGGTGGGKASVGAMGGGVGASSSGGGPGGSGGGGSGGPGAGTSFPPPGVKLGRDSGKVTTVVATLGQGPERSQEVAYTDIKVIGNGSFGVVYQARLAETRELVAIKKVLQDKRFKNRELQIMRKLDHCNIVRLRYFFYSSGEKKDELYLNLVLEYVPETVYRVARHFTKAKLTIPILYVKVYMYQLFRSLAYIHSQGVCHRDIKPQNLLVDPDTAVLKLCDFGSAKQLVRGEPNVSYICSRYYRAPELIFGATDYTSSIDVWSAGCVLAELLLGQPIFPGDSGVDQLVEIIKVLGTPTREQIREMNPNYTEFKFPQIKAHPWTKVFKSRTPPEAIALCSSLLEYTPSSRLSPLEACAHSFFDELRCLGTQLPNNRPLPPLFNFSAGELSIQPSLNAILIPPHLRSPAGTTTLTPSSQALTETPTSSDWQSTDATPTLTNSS
Sequence of Fibroblast growth factor receptor 4 (P22455 22-802 limits assumed): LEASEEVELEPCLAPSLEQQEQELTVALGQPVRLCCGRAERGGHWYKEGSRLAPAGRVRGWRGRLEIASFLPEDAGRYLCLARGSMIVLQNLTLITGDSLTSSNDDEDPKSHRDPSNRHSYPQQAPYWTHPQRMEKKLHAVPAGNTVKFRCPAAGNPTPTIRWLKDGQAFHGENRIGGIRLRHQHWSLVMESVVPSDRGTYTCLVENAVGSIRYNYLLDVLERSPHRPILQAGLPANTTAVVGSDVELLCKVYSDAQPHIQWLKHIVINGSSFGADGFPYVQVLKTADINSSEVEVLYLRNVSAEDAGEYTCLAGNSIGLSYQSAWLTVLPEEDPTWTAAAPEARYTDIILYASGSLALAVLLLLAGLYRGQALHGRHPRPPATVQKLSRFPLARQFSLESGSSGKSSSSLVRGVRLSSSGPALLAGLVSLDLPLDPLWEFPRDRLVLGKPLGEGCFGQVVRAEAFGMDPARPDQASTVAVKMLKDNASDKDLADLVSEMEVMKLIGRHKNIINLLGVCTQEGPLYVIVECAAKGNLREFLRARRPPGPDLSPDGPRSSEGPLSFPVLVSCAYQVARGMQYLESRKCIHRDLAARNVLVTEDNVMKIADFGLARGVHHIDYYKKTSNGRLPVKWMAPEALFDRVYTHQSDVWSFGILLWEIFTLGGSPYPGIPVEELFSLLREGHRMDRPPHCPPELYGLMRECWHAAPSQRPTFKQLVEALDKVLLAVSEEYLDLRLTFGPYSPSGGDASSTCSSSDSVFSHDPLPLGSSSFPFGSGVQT

Regarding `Cn1cc(-n2cnc3c(NCc4nc5cc(Cl)c(Cl)cc5[nH]4)nc(N4CCOCC4)nc32)cn1`, the % of control in assay [1] worked out at 3.57%; in assay [2] it was 82.2%.
Consider `C=CC(=O)Nc1ccc(C(=O)Nc2[nH]nc3c2CN(C(=O)N[C@H](CN(C)C)c2ccccc2)C3(C)C)cc1`, for which the % of engagement in assay [3] was 34.1%.
Turning to `Cc1cc([C@@H](C)Nc2ccccc2C(=O)O)c2nc(N3CCOCC3)cc(=O)n2c1` [AZD-6482], the % of control in assay [4] was 98%; in assay [5], 81%.
`CN(C)CCOc1ccc(-c2nc(-c3ccncc3)c(-c3ccc4c(c3)CC/C4=N\O)[nH]2)cc1` had a % of control in assay [6] of 79%.
As for `CC[C@@H]1[C@H](F)C(=O)N[C@@H]1COc1nccc2cc(C(N)=O)c(OC)cc12` [ZIMLOVISERTIB], the % of inhibition in assay [7] worked out at 10.5%.
On to `CCC(=O)N1CCN(c2ccc(-n3c(=O)ccc4cnc5ccc(-c6cnc7ccccc7c6)cc5c43)cc2C(F)(F)F)CC1`, for which the % of control in assay [8] turned out to be 92%.
